Literature values, collected in patent publication US20220362237A1, “PS[…] TREATMENT OF PAIN” (Mind Medicine, Inc., priority 2021, published 2022).

What was measured:
[1] = 20-microgram dose
[2] = grave and terminally ill patients, acute treatment (one or two doses); pain returned after several days
[3] = test system: serotonin 5-HT1 receptors
5-HT2A receptor = 5-HT2A receptor (Homo sapiens, UniProt P28223)
5-HT transporter (SERT) = 5-HT transporter (SERT) (Homo sapiens, UniProt P31645)
5HT2A receptors = conditions: tumor necrosis factor-alpha-induced inflammation
D2 receptors = D2 receptors (Homo sapiens, UniProt P14416)
Sequence of D2 receptors (P14416 whole entry): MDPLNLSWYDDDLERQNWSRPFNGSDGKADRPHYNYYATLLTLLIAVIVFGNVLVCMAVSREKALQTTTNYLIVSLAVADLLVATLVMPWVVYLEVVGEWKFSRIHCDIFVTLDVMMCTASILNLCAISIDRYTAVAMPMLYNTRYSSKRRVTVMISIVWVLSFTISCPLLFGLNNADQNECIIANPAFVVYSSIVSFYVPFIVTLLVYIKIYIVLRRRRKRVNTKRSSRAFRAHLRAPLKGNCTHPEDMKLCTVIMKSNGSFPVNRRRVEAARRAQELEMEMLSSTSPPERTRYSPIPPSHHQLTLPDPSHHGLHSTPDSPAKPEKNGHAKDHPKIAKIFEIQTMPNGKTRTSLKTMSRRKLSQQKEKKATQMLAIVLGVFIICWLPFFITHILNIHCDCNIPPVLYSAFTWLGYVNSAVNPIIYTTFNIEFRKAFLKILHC

Sequence of 5-HT transporter (SERT) (P31645 whole entry, species assumed): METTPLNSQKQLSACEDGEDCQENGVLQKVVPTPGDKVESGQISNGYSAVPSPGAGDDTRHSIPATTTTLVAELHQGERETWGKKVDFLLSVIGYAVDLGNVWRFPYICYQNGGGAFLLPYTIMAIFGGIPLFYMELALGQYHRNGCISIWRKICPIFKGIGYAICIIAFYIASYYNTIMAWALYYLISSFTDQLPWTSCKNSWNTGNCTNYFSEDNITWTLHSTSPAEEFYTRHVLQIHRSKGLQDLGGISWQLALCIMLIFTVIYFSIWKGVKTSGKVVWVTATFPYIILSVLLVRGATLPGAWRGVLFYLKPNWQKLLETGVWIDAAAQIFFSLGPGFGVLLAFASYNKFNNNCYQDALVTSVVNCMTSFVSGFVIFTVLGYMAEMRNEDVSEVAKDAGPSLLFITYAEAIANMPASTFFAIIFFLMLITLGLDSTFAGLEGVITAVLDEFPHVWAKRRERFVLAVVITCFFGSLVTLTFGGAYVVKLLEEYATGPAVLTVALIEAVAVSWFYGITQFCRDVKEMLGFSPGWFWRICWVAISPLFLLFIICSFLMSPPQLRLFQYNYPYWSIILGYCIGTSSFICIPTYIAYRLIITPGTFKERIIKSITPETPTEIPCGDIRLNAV
Sequence of 5-HT2A receptor (P28223 whole entry): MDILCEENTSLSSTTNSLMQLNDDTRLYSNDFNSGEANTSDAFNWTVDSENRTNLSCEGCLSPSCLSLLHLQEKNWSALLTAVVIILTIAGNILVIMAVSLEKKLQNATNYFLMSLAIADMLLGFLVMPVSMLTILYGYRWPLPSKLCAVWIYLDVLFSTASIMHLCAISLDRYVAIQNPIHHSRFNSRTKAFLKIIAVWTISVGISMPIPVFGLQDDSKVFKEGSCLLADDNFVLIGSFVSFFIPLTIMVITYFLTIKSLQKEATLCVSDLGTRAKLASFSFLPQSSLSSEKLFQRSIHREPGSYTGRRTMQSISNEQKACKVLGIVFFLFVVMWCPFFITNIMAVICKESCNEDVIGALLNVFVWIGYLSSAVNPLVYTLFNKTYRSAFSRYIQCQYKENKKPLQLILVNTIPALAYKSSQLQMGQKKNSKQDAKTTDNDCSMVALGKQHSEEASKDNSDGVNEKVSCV

SMILES: CCN(CC)C(=O)[C@@H]1C=C2c3cccc4[nH]cc(c34)C[C@H]2N(C)C1 [LSD, lysergic acid diethylamide]
- subjective levels of experienced pain and unpleasantness [1]: decreased
- time that participants could tolerate cold water exposure [1]: significantly increased
- stimulation of 5-HT2B/C receptors (5-HT2B/C): stimulates
- pain relief compared with the narcotics meperidine and dihydromorphinone [2]: greater and longer lasting pain relief
- agonist potency at serotonin 5-HT1 receptors [3]: potent agonists
- stimulation of the 5-HT2A receptor (5-HT2A receptor): potently stimulates
- stimulation of D1-3 receptors (D1-3 receptors): stimulates
- interaction with / inhibition of the 5-HT transporter (SERT) (5-HT transporter (SERT)): does not interact

SMILES: COc1cc(CC(C)N)c(OC)cc1I (stereo not shown) [R-DOI, 2,5-dimethoxy-4-iodoamphetamine]
- anti-inflammatory effect (5HT2A receptors): potent anti-inflammatory effect

SMILES: COc1cc(CCN)cc(OC)c1OC [mescaline]
- agonist potency at serotonin 5-HT1 receptors [3]: low potency
- affinity for D2 receptors (D2 receptors): no affinity

SMILES: CN(C)CCc1c[nH]c2cccc(O)c12 [psilocin]
- agonist potency at serotonin 5-HT1 receptors [3]: potent agonists
- interaction with / inhibition of the 5-HT transporter (SERT) (5-HT transporter (SERT)): inhibits
